Test results reported in PubChem BioAssay (NCI).
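Compound exposure: 48 hours, 5 concentrations, 96-well plates. GI50: concentration for 50% inhibition of growth. At the TGI there is no net growth.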

Assays:
Assay in all cases: DTP human tumour cell line panel, 48 h
SF-539 CNS = tested on: SF-539 CNS
UO-31 renal = tested on: UO-31 renal
SF-295 CNS = tested on: SF-295 CNS
PC-3 prostate = tested on: PC-3 prostate
A498 renal = tested on: A498 renal
UACC-257 melanoma = tested on: UACC-257 melanoma
KM12 colon = tested on: KM12 colon
OVCAR-5 ovarian = tested on: OVCAR-5 ovarian
T-47D breast = tested on: T-47D breast
HT29 colon = tested on: HT29 colon
NCI-H23 lung = tested on: NCI-H23 lung
CAKI-1 renal = tested on: CAKI-1 renal
IGROV1 ovarian = tested on: IGROV1 ovarian
RXF 393 renal = tested on: RXF 393 renal
MCF7 breast = tested on: MCF7 breast
M14 melanoma = tested on: M14 melanoma
BT-549 breast = tested on: BT-549 breast
MDA-MB-435 = tested on: MDA-MB-435
MALME-3M melanoma = tested on: MALME-3M melanoma
HCT-15 colon = tested on: HCT-15 colon
NCI-H460 lung = tested on: NCI-H460 lung
RPMI-8226 leukemia = tested on: RPMI-8226 leukemia
COLO 205 colon = tested on: COLO 205 colon
SK-MEL-28 melanoma = tested on: SK-MEL-28 melanoma
NCI-H226 lung = tested on: NCI-H226 lung
SR leukemia = tested on: SR leukemia
TK-10 renal = tested on: TK-10 renal
SN12C renal = tested on: SN12C renal
SNB-19 CNS = tested on: SNB-19 CNS
SK-MEL-2 melanoma = tested on: SK-MEL-2 melanoma
MDA-MB-231 breast = tested on: MDA-MB-231 breast
EKVX NSCLC = tested on: EKVX NSCLC
HL-60(TB) leukemia = tested on: HL-60(TB) leukemia
SNB-75 CNS = tested on: SNB-75 CNS
SK-MEL-5 melanoma = tested on: SK-MEL-5 melanoma
ACHN renal = tested on: ACHN renal
HCC-2998 colon = tested on: HCC-2998 colon
HOP-92 NSCLC = tested on: HOP-92 NSCLC
HS 578T breast = tested on: HS 578T breast
K-562 leukemia = tested on: K-562 leukemia
DU-145 prostate = tested on: DU-145 prostate
SF-268 CNS = tested on: SF-268 CNS
NCI-H522 lung = tested on: NCI-H522 lung
OVCAR-4 ovarian = tested on: OVCAR-4 ovarian
SW-620 colon = tested on: SW-620 colon
HOP-62 NSCLC = tested on: HOP-62 NSCLC
CCRF-CEM leukemia = tested on: CCRF-CEM leukemia
UACC-62 melanoma = tested on: UACC-62 melanoma

NCCCNc1nc2ccccc2c2c(=O)c3cccc(F)c3sc12
GI50 (SF-539 CNS): 1590 nM
TGI (SF-539 CNS): 2970 nM
GI50 (UO-31 renal): 1010 nM
TGI (UO-31 renal): 2240 nM
GI50 (SF-295 CNS): 1740 nM
TGI (SF-295 CNS): 3190 nM
GI50 (PC-3 prostate): 1670 nM
TGI (PC-3 prostate): 3260 nM
GI50 (A498 renal): 1670 nM
TGI (A498 renal): 3100 nM
GI50 (UACC-257 melanoma): 1970 nM
TGI (UACC-257 melanoma): 3810 nM
GI50 (KM12 colon): 1610 nM
TGI (KM12 colon): 3040 nM
GI50 (OVCAR-5 ovarian): 1600 nM
TGI (OVCAR-5 ovarian): 3010 nM
GI50 (T-47D breast): 1580 nM
TGI (T-47D breast): 3740 nM
GI50 (HT29 colon): 1250 nM
TGI (HT29 colon): 2690 nM
GI50 (NCI-H23 lung): 1540 nM
TGI (NCI-H23 lung): 3030 nM
GI50 (CAKI-1 renal): 1420 nM
TGI (CAKI-1 renal): 2750 nM
GI50 (IGROV1 ovarian): 798 nM
TGI (IGROV1 ovarian): 2220 nM
GI50 (RXF 393 renal): 1430 nM
TGI (RXF 393 renal): 2810 nM
GI50 (MCF7 breast): 1010 nM
TGI (MCF7 breast): 2400 nM
GI50 (M14 melanoma): 1800 nM
TGI (M14 melanoma): 3560 nM
GI50 (BT-549 breast): 11500 nM
TGI (BT-549 breast): 29600 nM
GI50 (MDA-MB-435): 1770 nM
TGI (MDA-MB-435): 3390 nM
GI50 (MALME-3M melanoma): 1570 nM
TGI (MALME-3M melanoma): 3050 nM
GI50 (HCT-15 colon): 1130 nM
TGI (HCT-15 colon): 2390 nM
GI50 (NCI-H460 lung): 493 nM
TGI (NCI-H460 lung): 1770 nM
GI50 (RPMI-8226 leukemia): 2030 nM
TGI (RPMI-8226 leukemia): 4750 nM
GI50 (COLO 205 colon): 1600 nM
TGI (COLO 205 colon): 3690 nM
GI50 (SK-MEL-28 melanoma): 1770 nM
TGI (SK-MEL-28 melanoma): 3230 nM
GI50 (NCI-H226 lung): 1450 nM
TGI (NCI-H226 lung): 3060 nM
GI50 (SR leukemia): 1570 nM
TGI (SR leukemia): > 100000 nM
GI50 (TK-10 renal): 1940 nM
TGI (TK-10 renal): 3470 nM
GI50 (SN12C renal): 1280 nM
TGI (SN12C renal): 2700 nM
GI50 (SNB-19 CNS): 1570 nM
TGI (SNB-19 CNS): 3000 nM
GI50 (SK-MEL-2 melanoma): 1770 nM
TGI (SK-MEL-2 melanoma): 3660 nM
GI50 (MDA-MB-231 breast): 1280 nM
TGI (MDA-MB-231 breast): 2750 nM
GI50 (EKVX NSCLC): 1500 nM
TGI (EKVX NSCLC): 3000 nM
GI50 (HL-60(TB) leukemia): 1880 nM
TGI (HL-60(TB) leukemia): 3950 nM
GI50 (SNB-75 CNS): 1610 nM
TGI (SNB-75 CNS): 3210 nM
GI50 (SK-MEL-5 melanoma): 1690 nM
TGI (SK-MEL-5 melanoma): 3080 nM
GI50 (ACHN renal): 1200 nM
TGI (ACHN renal): 2430 nM
GI50 (HCC-2998 colon): 1640 nM
TGI (HCC-2998 colon): 3410 nM
GI50 (HOP-92 NSCLC): 1290 nM
TGI (HOP-92 NSCLC): 3390 nM
GI50 (HS 578T breast): 1720 nM
TGI (HS 578T breast): 3970 nM
GI50 (K-562 leukemia): 1360 nM
TGI (K-562 leukemia): 4150 nM
GI50 (DU-145 prostate): 1230 nM
TGI (DU-145 prostate): 2530 nM
GI50 (SF-268 CNS): 1470 nM
TGI (SF-268 CNS): 3350 nM
GI50 (NCI-H522 lung): 1610 nM
TGI (NCI-H522 lung): 3280 nM
GI50 (OVCAR-4 ovarian): 1760 nM
TGI (OVCAR-4 ovarian): 3580 nM
GI50 (SW-620 colon): 1100 nM
TGI (SW-620 colon): 2490 nM
GI50 (HOP-62 NSCLC): 1500 nM
TGI (HOP-62 NSCLC): 3150 nM
GI50 (CCRF-CEM leukemia): 1420 nM
TGI (CCRF-CEM leukemia): 4160 nM
GI50 (UACC-62 melanoma): 1670 nM
TGI (UACC-62 melanoma): 3130 nM
